According to PubChem BioAssay (NCI):
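96-well plates; 48 h exposure; 5 concentrations. Endpoints by linear interpolation between flanking doses. Not reached: highest tested concentration assigned. GI50 = concentration required for 50% inhibition of growth. TGI: total growth inhibition.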

What was measured:
Assay in all cases: NCI tumour cell line growth inhibition, 48 h
[1] = system: NCI-H23 lung
[2] = system: SK-OV-3 ovarian
[3] = system: MCF7 breast
[4] = system: NCI/ADR-RES ovarian
[5] = system: LOX IMVI melanoma
[6] = system: SN12C renal
[7] = system: SF-268 CNS
[8] = system: SF-539 CNS
[9] = system: K-562 leukemia
[10] = system: UACC-257 melanoma

Structure (SMILES) | GI50 [1] | TGI [1] | GI50 [2] | TGI [2] | GI50 [3] | TGI [3] | GI50 [4] | TGI [4] | GI50 [5] | TGI [5] | GI50 [6] | TGI [6] | GI50 [7] | TGI [7] | GI50 [8] | TGI [8] | GI50 [9] | TGI [9] | GI50 [10] | TGI [10]
N=c1c2c(-c3ccccc3)c(-c3ccccc3)n(Cc3ccccc3)c2ncn1C1CCC(O)CC1 (centres undefined) | 0.836 µM | 22 µM | 2.32 µM | 15.7 µM | 0.278 µM | 2.36 µM | 0.717 µM | 18.4 µM | 0.14 µM | 1.69 µM | 0.389 µM | 16.4 µM | 0.118 µM | 15 µM | 0.639 µM | 2.24 µM | 0.0976 µM | 2.64 µM | 0.469 µM | 1.91 µM
Cc1nc(N)sc1N=Nc1ccccc1Br |  | 56.3 µM |  | > 100 µM |  | 70.2 µM |  | 72.5 µM |  | > 66.1 µM |  | 57.5 µM |  | 40.4 µM |  | > 59.5 µM |  | > 100 µM |  | 55.8 µM
S=c1[nH]c(=S)c2cc3ccccc3nc2[nH]1 | 35 µM | > 100 µM | > 100 µM | > 100 µM | 5.33 µM | > 100 µM | > 100 µM | > 100 µM | > 100 µM | > 100 µM | > 100 µM | > 100 µM | 39.4 µM | > 100 µM | > 100 µM | > 100 µM | > 100 µM | > 100 µM | > 100 µM | > 100 µM
CCn1c(O)c(/C=N/NC(=O)C(C)c2ccc(CC(C)C)cc2)sc1=S (centres undefined) | 0.673 µM | > 41.1 µM | 0.666 µM | > 100 µM | 0.346 µM | > 35.1 µM | 0.276 µM | > 38.8 µM | 0.594 µM | > 36.1 µM | 0.619 µM | > 40.3 µM | 1.63 µM | > 43.4 µM | 0.214 µM | 0.609 µM | 0.282 µM | > 48.4 µM | 3.16 µM | > 74.9 µM
COc1cc(Cl)cc(-c2nn(-c3cccc(NC(=O)c4ccc(N5CCOCC5)c(C(F)(F)F)c4)c3)cc2-c2ccncc2)c1 | 30.7 µM | > 100 µM | > 100 µM | > 100 µM | 8.71 µM | > 100 µM | 6.17 µM | > 100 µM | 15.8 µM | > 100 µM | > 100 µM | > 100 µM | > 100 µM | > 100 µM | 3.74 µM | > 100 µM | 3.1 µM | > 100 µM | 21.7 µM | 69.1 µM
CC(NCCC(c1ccccc1)c1ccccc1)c1ccccc1 (centres undefined) | 2.03 µM | 7.81 µM | 1.65 µM | 3.81 µM | 1.8 µM | 3.63 µM | 2.77 µM | 7.68 µM | 1.59 µM | 2.93 µM | 2.42 µM | 9.13 µM | 4.48 µM | 17.5 µM | 2.92 µM | 9.01 µM | 2.42 µM | 5.23 µM | 1.65 µM | 4.02 µM
COc1cc(N(CCC#N)CCC#N)ccc1/C(N=Nc1ccc(Cl)cc1)=N/NC(=O)c1cc(Br)ccc1O | > 150 µg/mL | > 150 µg/mL | 90.8 µg/mL | > 150 µg/mL | 44.1 µg/mL | > 150 µg/mL | 53.2 µg/mL | > 150 µg/mL | 49.3 µg/mL | > 150 µg/mL | 88.4 µg/mL | > 150 µg/mL | 35 µg/mL | > 150 µg/mL | 73.3 µg/mL | > 150 µg/mL | 86.4 µg/mL | > 150 µg/mL | > 150 µg/mL | > 150 µg/mL
Cc1cc(N[C@@H]2CCC[C@H](Nc3ccnc4cc(Cl)ccc34)C2)nc(N2CCCCCC2)n1 | 2.03 µM | 5.43 µM | 1.86 µM | 3.73 µM | 1.43 µM | 3.03 µM | 1.69 µM | 3.9 µM | 1.43 µM | 2.96 µM | 1.55 µM | 3.11 µM | 1.54 µM | 3.39 µM | 1.59 µM | 3.03 µM | 0.359 µM | 1.69 µM | 2.35 µM | 4.19 µM
CC(=O)ON1CCCC(P(=O)(OCCSC(=O)C(C)(C)C)OCCSC(=O)C(C)(C)C)C1=O (centres undefined) | 3.3 µM | 28.5 µM | 2.86 µM | 88 µM | 2.01 µM | 47.5 µM | 1.35 µM | 12.4 µM | 1.22 µM | 95.5 µM | 0.36 µM | 15 µM | 2.29 µM | 60.9 µM | 3.96 µM | 27.4 µM | 0.674 µM | > 100 µM | 6.9 µM | 81.1 µM
CN(C)C1CCN(C(=O)c2ccc(NC(=O)Nc3ccc(-c4nc(N5CCOCC5)c5cccn5n4)cc3)cc2)CC1 | 0.102 µM | 17.7 µM | 0.0377 µM | 0.252 µM |  | 1.51 µM | 59.5 µM | > 100 µM | 0.0267 µM | 1.19 µM | 0.0365 µM | 14.7 µM | 0.0453 µM | 13.9 µM | 0.0453 µM | 0.406 µM | 0.224 µM | 9.66 µM | 0.204 µM | 0.729 µM
NS(=O)(=O)c1ccc(N=Nc2c(O)c(C(=O)O)cc3ccccc23)cc1 |  | > 100 µM |  | > 100 µM |  | > 100 µM |  | > 100 µM |  | > 100 µM |  | > 100 µM |  | > 100 µM |  | > 100 µM |  | > 100 µM |  | > 100 µM
O=c1c(F)cn(Cc2ccc(C34CC5CC(CC(C5)C3)C4)c(O)c2)c(=O)n1Cc1ccc(C23CC4CC(CC(C4)C2)C3)c(O)c1 | 15.6 µM | 32 µM | 17.9 µM | 33.1 µM | 9.83 µM | 30.6 µM | 14.3 µM | 28.9 µM | 6.98 µM | 20 µM | 10.5 µM | 22.3 µM | 12.8 µM | 32.6 µM | 11.5 µM | 24.4 µM | 5.29 µM | > 100 µM | 20.7 µM | 50.7 µM
CCC[CH2][Sn]([CH2]CCC)([O]C(=O)c1ccc(OC)c(OC)c1OC)[O][Sn]([CH2]CCC)([CH2]CCC)[O]C(=O)c1ccc(OC)c(OC)c1OC | 0.142 µM | 0.535 µM | 1.24 µM | 2.59 µM | 0.133 µM | 1.28 µM | 0.843 µM | 2.14 µM | 0.134 µM | 0.292 µM | 0.443 µM | 1.58 µM | 0.187 µM | 0.842 µM | 0.36 µM | 0.94 µM | 0.0416 µM | 1.86 µM | 0.217 µM | 0.549 µM
NC1CCN(Cc2ccccc2)CC1 | > 100 µM | > 100 µM | > 100 µM | > 100 µM | > 100 µM | > 100 µM | > 100 µM | > 100 µM | > 100 µM | > 100 µM | > 100 µM | > 100 µM | > 100 µM | > 100 µM | 2.27 µM | 6.21 µM | > 100 µM | > 100 µM | > 100 µM | > 100 µM
Clc1cc2c(c(CSc3nc4ccccc4n4cccc34)c1)OCOC2 | 26.3 µM | > 100 µM | 13.7 µM | 45 µM | 0.501 µM | > 100 µM | 61 µM | > 100 µM | > 100 µM | > 100 µM | > 100 µM | > 100 µM | 31.3 µM | > 100 µM | 22.9 µM | > 100 µM | > 100 µM | > 100 µM | > 100 µM | > 100 µM
CCN(CC)CCNc1nc(N)c(C#N)c(C#N)c1C#N |  | > 10 µM |  | > 10 µM |  | > 10 µM |  | > 10 µM |  | > 10 µM |  | > 10 µM |  | > 10 µM |  | > 10 µM |  | > 10 µM |  | > 10 µM
O=c1oc2ccc(-c3ccc(F)cc3F)cc2c(=O)n1-c1cccc(C(F)(F)F)c1 | 0.687 µM | 3.59 µM | 1.02 µM | 4.54 µM | 3.22 µM | > 100 µM | 2.2 µM | 8.9 µM | 1.61 µM | 5.55 µM | 1 µM | 10.4 µM | 1.23 µM | 8.21 µM | 1.41 µM | 6.95 µM | 1.2 µM | 18.2 µM | 0.274 µM | 3.31 µM
CCN1CCN(c2cc(C)c3cc(NC(=O)c4ccc(OC)c(OC)c4)ccc3n2)CC1 | 50.5 µM | > 100 µM | > 30.1 µM | > 73.3 µM | 0.572 µM | > 100 µM | > 49.1 µM | > 100 µM | 9.36 µM | 24.3 µM | > 100 µM | > 100 µM | 9.19 µM | > 75.1 µM | 5.44 µM | > 44.8 µM | 2.75 µM | > 100 µM | > 40.4 µM | > 58.9 µM
COc1cc(N=Nc2ccc(O)c3ncccc23)c2ncccc2c1 | 3.75 µM | > 100 µM | 5.57 µM | > 100 µM | 2.18 µM | > 100 µM | 1.02 µM | 15.5 µM | 2.13 µM | > 100 µM | 4.45 µM | > 100 µM | 2.81 µM | > 100 µM | 2.95 µM | 14 µM | 3.44 µM | > 100 µM | 10.9 µM | > 100 µM
